Consider one molecule from patent US20030181498A1, “Bicyclic heteroaryl compounds as inhibitors of the interaction between the integrin alpha4beta1 receptor and vcam-1 and/or fibronectin” (AstraZeneca AB, priority 2000, published 2003).

This assay has as its target T1, integrin α4β1 expressed on the MOLT-4 cell membrane with fibronectin (Homo sapiens, UniProt P05556+P13612).
T1 construct: integrin α4β1 expressed on the MOLT-4 cell membrane; host or cells: MOLT-4 human T-lymphoblastic leukaemia cells
Description: MOLT-4 cell/fibronectin adhesion assay. The settings on record: MOLT-4 cells, fibronectin-coated plates, 2 h at 37° C.; read-out: inhibitor at (inhibition of MOLT-4 cell adhesion to fibronectin). Type of assay: cell-based. The source says:
MOLT4 cells—human T-lymphoblastic leukaemia cells European Collection of Anil Cell Cultures, Porton Down)
Fibronectin—purified from human plasma by gelatin-sepharose affinity chromatography according to the methods described in E. Nengvall, E. Ruoslahti, Int. J. Cancer, 1977, 20, pages 1-5 and J. Forsyth et al, Methods in Enzymology, 1992, 21 pages 311-316).
1.1.1 MOLT-4 Cell/Fibronectin Adhesion Assay.
The MOLT-4 cell/fibronectin adhesion assay was used to investigate the interaction of the integrin α4β1 expressed on the MOLT-4 cell membrane with fibronectin. Polystyrene 96 well plates were coated overnight at 4° C. with fibronectin, 100 μl of 10 μg/ml in PBS. Non-specific adhesion sites were blocked by adding 100 μl BSA, 20 mg/ml. After incubating for 1 h at room temperature, the solutions were aspirated. […] Adherent cells were quantified by a colorimetric acid phosphatase assay. […] After incubation for 1 h at 37° C., 50 μl sodium hydroxide (1M) was added to each well and the absorbance 405 nm was measured on a microplate spectrophotometer. Compounds which inhibited adhesion gave a lower absorbance reading. […] Percentage inhibition was calculated with respect to total (no inhibitor) and non-specific (no fibronectin) standards on each plate. […]

T1 sequence (P13612 34-1032): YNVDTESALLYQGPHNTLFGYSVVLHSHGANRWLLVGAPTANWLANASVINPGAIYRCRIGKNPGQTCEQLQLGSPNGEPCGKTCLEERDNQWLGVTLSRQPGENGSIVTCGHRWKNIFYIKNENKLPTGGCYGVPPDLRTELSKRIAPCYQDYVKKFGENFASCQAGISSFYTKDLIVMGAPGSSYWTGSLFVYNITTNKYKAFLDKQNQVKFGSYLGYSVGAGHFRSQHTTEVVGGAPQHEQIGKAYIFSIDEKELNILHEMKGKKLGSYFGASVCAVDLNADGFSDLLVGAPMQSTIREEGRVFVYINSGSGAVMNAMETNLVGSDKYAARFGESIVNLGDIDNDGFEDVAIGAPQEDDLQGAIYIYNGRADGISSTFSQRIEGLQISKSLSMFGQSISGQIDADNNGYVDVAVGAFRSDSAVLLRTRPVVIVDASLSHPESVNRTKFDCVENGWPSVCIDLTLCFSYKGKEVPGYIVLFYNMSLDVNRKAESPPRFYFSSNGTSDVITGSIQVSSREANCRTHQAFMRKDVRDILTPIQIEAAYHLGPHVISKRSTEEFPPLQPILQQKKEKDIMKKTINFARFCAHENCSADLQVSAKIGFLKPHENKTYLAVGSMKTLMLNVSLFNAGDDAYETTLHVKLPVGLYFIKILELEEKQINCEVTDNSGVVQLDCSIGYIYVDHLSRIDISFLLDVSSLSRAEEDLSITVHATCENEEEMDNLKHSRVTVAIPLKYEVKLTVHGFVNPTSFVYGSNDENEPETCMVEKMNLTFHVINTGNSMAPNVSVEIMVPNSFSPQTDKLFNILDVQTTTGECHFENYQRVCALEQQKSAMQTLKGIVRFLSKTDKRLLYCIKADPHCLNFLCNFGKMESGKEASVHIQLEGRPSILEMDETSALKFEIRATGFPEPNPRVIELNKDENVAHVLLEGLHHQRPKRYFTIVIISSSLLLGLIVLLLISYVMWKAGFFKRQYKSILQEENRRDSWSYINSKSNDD
T1 sequence (P05556 21-798): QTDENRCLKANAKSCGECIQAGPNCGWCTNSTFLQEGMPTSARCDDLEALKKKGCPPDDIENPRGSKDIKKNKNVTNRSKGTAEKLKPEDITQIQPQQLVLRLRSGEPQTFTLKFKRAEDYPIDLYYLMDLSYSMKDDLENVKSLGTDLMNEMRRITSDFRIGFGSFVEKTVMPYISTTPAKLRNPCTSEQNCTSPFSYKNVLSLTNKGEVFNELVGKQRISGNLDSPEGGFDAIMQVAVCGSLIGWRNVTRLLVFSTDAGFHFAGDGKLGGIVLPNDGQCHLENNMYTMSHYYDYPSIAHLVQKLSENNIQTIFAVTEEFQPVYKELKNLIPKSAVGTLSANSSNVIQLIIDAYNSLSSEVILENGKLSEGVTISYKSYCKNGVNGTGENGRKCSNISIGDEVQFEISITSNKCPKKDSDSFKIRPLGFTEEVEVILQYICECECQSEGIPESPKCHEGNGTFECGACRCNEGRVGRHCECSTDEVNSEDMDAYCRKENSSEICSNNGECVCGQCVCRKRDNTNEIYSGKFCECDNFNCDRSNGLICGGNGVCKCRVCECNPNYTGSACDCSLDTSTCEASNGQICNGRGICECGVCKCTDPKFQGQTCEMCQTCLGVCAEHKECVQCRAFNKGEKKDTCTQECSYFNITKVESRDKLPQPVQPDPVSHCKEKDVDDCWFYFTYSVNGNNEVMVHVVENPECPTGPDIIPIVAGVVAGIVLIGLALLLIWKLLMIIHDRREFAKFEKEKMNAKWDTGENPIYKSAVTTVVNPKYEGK

Consider `COc1cc(CC(=O)Nc2ccc(=O)n(CCCCC(=O)O)c2)cc2oc(Nc3ccccc3)nc12` [Compound CV], for which the IC50 was determined as 1100 nM.
